The source of these data is patent US20030108612A1, “Metallic nanoparticles for inhibition of bacterium growth” (priority 2001, published 2003).

The test system of test [1] is Pseudomonas aeruginosa cells (WT, na1B, ΔABM). Kind of test: Overnight culture, visual inspection of turbidity (MIC). Type of test: cell-based. The conditions noted are these: visual inspection after overnight incubation. An excerpt:
Three strains of Pseudomonas aeruginosa cells (WT, na1B, ΔABM) were used in this working example. “WT” stands for wild type P. aeruginosa, PA04290. The symbol “AABM” stands for a mutant of wild type P. aeruginosa, PA04290, lacking MexA, MaxB and OprM, wherein MexA, MexB and OprM are component genes of an efflux system in wild type P. aeruginosa. The symbol “na1B” stands for a mutant of wild type P. aeruginosa, PA04290, having over expression of the MexA, MexB and OprM genes. These three strains were precultured in autoclaved test tubes overnight. Each test tube contained 3 mL of L-broth medium (1% tryptone, 0.5% yeast extract and 0.5% NaCl, pH 7.2) and was placed inside a shaker at 37° C. and 230 rpm. Then, 20 μL of this pre-cultured cell medium was transferred to each new test tube containing 2 mL of L-broth medium and 0, 2, 20, 40, 80, 100, 200 and 400 μL of a sterile liquid containing 300 pM silver enhanced gold particles (as the metallic nanoparticles used in this example) prepared as described in Example 1. […] Based on visual inspection of test tubes (the presence or absence of turbidity in the medium in each of the test tube) after the overnight incubation, it was determined that the bacterial cells grew at a concentration of the silver coated gold particles of less than 20 pM, but not at a concentration of 20 pM or more. […]

For test [2], the system named is P. aeruginosa, WT, na1B and ΔABM. Kind of test: Overnight culture, absorbance at 600 nm by UV-vis spectroscopy (MIC). The test is classed as cell-based, Pseudomonas aeruginosa. The note with it: antibiotic concentration 3.13, 15.65 or 31.3 μg/mL, three strains. The method, then: After the overnight incubation, the absorbance of the […] an UV-vis spectrometer to determine the concentrations of bacterial cells based upon the light scattering of bacterial cells for the three strains of P. aeruginosa, WT, na1B and ΔABM. For each strain of P. aeruginosa cells and each concentration of the silver coated gold particles, the absorbances of 5 samples of the culture medium were measured with the absorbance of each sample measured 3 times and the average absorbance was calculated. The absorbance of ultra-pure water containing the corresponding concentration of silver coated gold particles was subtracted from the average absorbance and the resulting absorbance was plotted in FIG. 1 versus the concentrations of the silver coated gold particles used in the incubation. […] Thus, the MICs of the silver coated gold particles were determined to be about 20 pM for these three strains of P. aeruginosa.
With a UV-vis spectrometer, the absorbance of each sample of the culture medium was measured at 600 nm after the overnight incubation to determine the P. aeruginosa cell concentration based upon light scattering of cells. For each strain of P. aeruginosa cells, the absorbances of 4 samples of the P. aeruginosa culture medium containing azthreonam or gentamicin at a concentration of 0.313, 3.13, 15.65 or 31.3 μg/mL were measured. […]

Test [3] shares this test system. Kind of test: Overnight culture, cell count by single-cell dark-field microscopy (MIC). The test is classed as cell-based, Pseudomonas aeruginosa. The conditions noted are these: antibiotic concentration 3.13, 15.65 or 31.3 μg/mL. An excerpt: Images were taken of the 5 samples using a dark-field microscope equipped with a Micromax CCD camera. For each of the three strains of P. aeruginosa, 5 samples of the […], 0.2, 2, 20 or 90 pM were examined using dark-field microscopy to count the number of P. aeruginosa cells present. For each sample, 5 pictures were taken at different locations to obtain representative numbers of P. aeruginosa cells present in each sample and the numbers of P. aeruginosa cells counted in the 5 pictures were summed to obtain the total number of P. aeruginosa cells in the 5 pictures. FIG. […] However, at a metallic nanoparticle concentration of 0, 0.2 or 2 pM, there were 200 or more P. aeruginosa cells in the 5 pictures of the culture medium. […] There were green, blue and red metallic nanoparticles, but the most abundant were green. The red nanoparticles appeared to be the brightest under the dark-field microscope because of the larger size.
After the overnight incubation described above, images were taken using a dark-field microscope equipped with a Micromax CCD camera. For each of the three strains of P. aeruginosa in the presence of azthreonam or gentamicin at a concentration of 0.313, 3.13, 15.65 or 31.3 μg/mL, 4 samples of the culture medium were subjected to single-cell dark-field microscopy. […]

A further test relates to WT P. aeruginosa. The conditions noted are these: published literature; cited from earlier work.

Turning to gentamicin, the “minimum inhibitory concentrations (MICs)” value in test [1] is “about 3.13 μg/mL”. For the same compound, the “absorbance at 600 nm” value in test [2] is recorded as “almost zero”. Also, the “total number of P. aeruginosa cells present in the 5 pictures” value in test [3] is recorded as “almost zero”. For the same compound, the MIC result in the test with WT P. aeruginosa was “about 3.13 μg/mL”.
Take `C[C@H]1[C@H](NC(=O)/C(=N\OC(C)(C)C(=O)O)c2csc(N)n2)C(=O)N1S(=O)(=O)O` [azthreonam]: the “minimum inhibitory concentrations (MICs)” value in test [1] is reported as “about 3.13 μg/mL”. For the same compound, the “absorbance at 600 nm” value in test [2] was “almost zero”. Besides, the “total number of P. aeruginosa cells present in the 5 pictures” value in test [3] is reported as “almost zero”. Moreover, the MIC entry in the test with WT P. aeruginosa was “about 3.13 μg/mL”.
